Data published in patent publication US11046657B2, “Pyrimidinone derivatives and uses thereof to neutralize the biological activity of chemokines” (Centre National de la Recherche Scientifique (CNRS), priority 2016, dated 2021).
Converted amounts (≈) assume the structure as drawn. “Also recorded” adds a separate entry of the source. Read-outs that look alike come from different tables or passages of the source.

Experiments:
[1] = tested on: human peripheral blood CD4+ lymphocytes; settings: cited from earlier work
[2] = tested on: Balb/c mice administered LPS; assay: LPS-induced mouse model of neutrophilic airway inflammation (COPD); format: in vivo; settings: 350 μmol/kg i.p. in 1% CMC, 2 h before LPS; lavage 24 h after LPS
Procedure: In vivo effect of a systemic treatment with chalcone-4 or compound (1) in a LPS-induced mouse model of neutrophilic airway inflammation. Balb/c mice were administered intranasally with LPS (1 μg, white block) or saline (control). Chalcone-4 (gray block) or compound (1) (black block) (350 μmol/kg each) suspended in 1% CMC or solvent (CMC alone) were administered intraperitoneally 2 h before LPS. Neutrophil recruitment is shown, inhibited by chalcone 4 and compound (1). Data points are means and bars are S.E.M. values of n=6 determinations.
The in vivo activity of compound (1) was tested in the murine model of neutrophilic airway inflammation induced by lipopolysaccharide (LPS) as previously described (Flacher et al, ACS Chem Biol. 2015, 10:2697-705)^14.
Briefly, Balb/c mice were administered intranasally with LPS (lipopolysaccharide from E. coli, O55B5, 1 μg, Sigma Aldrich) or saline. Treatments with (1) or Chalcone-4 (350 μmol/kg) in 1% CMC (carboxymethylcellulose) were administered by the intraperitoneal route 2 h before LPS instillation. Bronchoalveolar lavage was performed 24 h after LPS, and neutrophil, lymphocyte, eosinophil and macrophage numbers quantified.

[3] = tested on: Balb/c mice sensitized to ovalbumin; settings: mouse model of airway allergic eosinophilic inflammation; cited from earlier work
[4] = Stability after 24 h; format: physicochemical; settings: monitored after 24 h
Procedure: (§1) Their solubility in assay media was evaluated. (2-Hydroxypropyl)-o-cyclodextrin (Cdx) was used as excipient because of its low toxicity and its capacity to increase bioavailability. […] The compound stability was evaluated in PBS only and in PBS/Cdx.

[5] = target: CXCL12 to CXCR7 (Homo sapiens, UniProt P48061); settings: cited from earlier work
[6] = target: CXCL12 to CXCR4 (Homo sapiens, UniProt P48061); settings: cited from earlier work
[7] = Solubility in assay media; format: physicochemical
Procedure: as §1

[8] = target: T1, CXCR4-CXCL12 binding (Homo sapiens, UniProt P48061); assay: Inhibition of CXCL12-TR binding to CXCR4-GFP (FRET); settings: 10 μM
T1 construct: expressed in transfected cells
Procedure: Study of the changes of CXCR4-CXCL12 binding was achieved by the energy transfer technique^10,11.
Binding of Texas red-labelled CXCL12 with CXCR4-GFP fused receptor^11 induces fluorescence resonance energy transfer (FRET), which can be monitored by the reduction of GFP fluorescence emission. The characterization of CXCL12 neutraligands was evaluated in two conditions, differing by the sequence of addition of molecules. Reduction of GFP fluorescence emission was more important when neutraligands were preincubated (30 min) […] prior to the addition to cells.
The CXCR4 antagonist, T134 (20 μM) was used as a control in both incubation protocols. Data obtained were consistent with a binding to the chemokine and not to its receptor. Consequently, all selected compounds are indeed CXCL12 chemokine neutraligands and behave as chalcone-4. The neutralizing properties of the compounds are thus confirmed.

[9] = target: T2, CCL22 (Homo sapiens, UniProt O00626); assay: Selectivity towards chemokine CCL22; settings: 5 μM
T2 sequence (O00626 25-93): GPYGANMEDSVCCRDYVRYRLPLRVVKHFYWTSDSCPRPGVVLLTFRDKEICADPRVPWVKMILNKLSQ
Procedure: (§2) Furthermore, the selectivity of (1) was also evaluated towards two other chemokines, namely CCL17 and CCL22, with no activity at 5 μM (data not shown).

[10] = target: T3, CCL17 (Homo sapiens, UniProt Q92583); assay: Selectivity towards chemokine CCL17; settings: 5 μM
T3 sequence (Q92583 24-94): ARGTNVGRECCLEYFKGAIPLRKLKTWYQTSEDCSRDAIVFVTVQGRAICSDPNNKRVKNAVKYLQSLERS
Procedure: as §2

[11] = PBS with (2-hydroxypropyl)-cyclodextrin (Cdx) 10% w/w, aqueous with cosolvent or surfactant or cyclodextrin, PBS/Cdx (10% w/w), read-out: Solubility PBS/Cdx
[12] = PBS, aqueous buffer, read-out: Solubility PBS

T1 sequence (P48061 22-89 limits assumed): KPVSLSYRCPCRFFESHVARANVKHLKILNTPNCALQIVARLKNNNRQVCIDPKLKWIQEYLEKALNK
Sequence of CXCL12 to CXCR7 (P48061 22-89 limits assumed): as above
Sequence of CXCL12 to CXCR4 (P48061 22-89 limits assumed): as above

Stability PBS/Cdx [4] [%] | Stability PBS [4] [%] | solubility [7, 11] [µM] | solubility [7, 12] [µM] | inhibition at 10 µM ([8]; Table 3) [%] | Activity towards CCL22 [9] | inhibition at 10 µM ([8]; Table 2) [%] | inhibition at 10 µM ([8]; Table 4) [%] | Activity towards CCL17 [10] | SMILES | Chemotaxis of human peripheral blood CD4+ lymphocytes [1] | Inhibition of neutrophil recruitment [2] [%] | Inflammatory infiltration, in particular of eosinophils [3] | Binding of CXCL12 to CXCR7 [5] | Binding of CXCL12 to CXCR4 [6] | Solubility compared with chalcone-4 ([7]; in words)
100 | 100 | > 300 | 9 (≈ 2.6 µg/mL) | 96 ± 2 | – | – | – | – | COc1cc(/C=C/C(=O)c2ccc(Cl)cc2)ccc1O [Chalcone-4, (E)-1-(4-Chlorophenyl)-3-(4-hydroxy-3-methoxyphenyl)prop-2-en-1-one, reference compound] | blocks chemotaxis | 30 | inhibits inflammatory infiltration | inhibits | inhibits | –
100 | 100 | > 5000 | 36.4 (≈ 12 µg/mL) | 76 ± 5 | no activity | 92 ± 5 | 76 ± 5 | no activity | COc1cc(-c2cc(-c3ccc(Cl)cc3)nc(=O)[nH]2)ccc1O [compound (1), 4-(4-Chlorophenyl)-6-(4-hydroxy-3-methoxyphenyl)pyrimidin-2(1H)-one] | – | 43 | – | – | – | better than the solubility of “chalcone-4”; also recorded: more soluble
